Source: US6399622B1, “Method for diagnosing and alleviating the symptoms of chronic fatigue syndrome” (priority 1997, dated 2002)
Where two headings read alike, the source gives them in different places.

Columns and labels:
[1] = in vivo, po, 1000 mg; cited from earlier work
[2] = tested on: herpes viruses; conditions: cited from earlier work
[3] = tested on: human cytomegalovirus (nonstructural gene products p52 and CM2); test: Example 4: Copalis antibody titers and fatigue after ganciclovir in HCMV CFS patients; type: in vivo
Excerpt: This Copalis® method to CM2 and p52 measures IgM antibodies to HCMV non-structural gene products. The non-structural gene products are UL44, UL57. These gene products have been produced in E-coli. The UL44 and UL57 refer to the open reading frames (ORF) of the human cytomegalovirus genome. The UL44 has the function of a polymerase processivity factor known as p52. The UL57 is the second gene product which may be measured by the Copalis® method and its function is as a single-stranded (ss) DNA binding protein CM2. These are nonstructural gene products which are extruded from a cell with incomplete human cytomegalovirus multiplication. The Copalis® method measures antibodies to these two gene products with the purified antigens produced in E-coli.
The Copalis® CMV Mutliplex assay is a homogenous test for the simultaneous determination of acute infection stages or immune status to Cytomegalovirus using coupled particle light scattering. Sized microparticles, coated with one of three antigens (p52, CM2, and CMV viral particle (VP)) are dried in the reaction cup. Early phase IgM antibodies are detected by both the CM2 and the p52 antigens. Antibody response to the CM2 antigen but not to the p52 antigen continues through the convalescent stage of acute infection. Antibodies to the VP may appear during acute infection but shall persist during life. Reactivity just (sucrose-density purified tissue culture produced complete HCMV cytomegalovirus) to the VP is characteristic of prior infection (indicative of immune status). Antibody detection, made by the Copalis® Immunoassay System, is reported qualitatively for the IgM analytes and semi-quantitatively for the total analyte.
The Copalis® CMVplex Antibody Assay is based on the principle of antibody dependent particle aggregation as measured by the amount of light scattered. A typical antibody reactivity pattern (IgM and/or IgG) in the patient sample allows diagnosis of the infection as seronegative, acute or past infections. The CMVplex Test Cup has polystyrene microparticles of three sizes each coated with different specific antigens dried in the bottom. The Test Cup is reconstituted with reaction buffer by the instrument. The sample is then transferred into the reaction well and the mixture is agitated for 10 minutes. Upon completion of the agitation, the reaction mixture is transferred to the optical system for analysis.
The level of aggregation is determined by discrimination of particle sizes and unreacted particles (monomers) as detected by the optical system. The quantity of assay particles remaining as monomers is compared to that of an unreacted baseline negative calibrator. A ratio is established between the counts of the two monomer particles. This ratio is reported as the Copalis® Test Result (CTR). The CTR is then converted into a numerical unit, Copalis® Index (CI), which determines the cutoff thresholds for each marker. Interpretation of results is based upon the CI. Results for the IgG marker (VP) are reported semi-quantitatively and qualitatively for the IgM markers (p52 and CM2).
Results of Copalis® antibody testing in patients with the U.S. CDC-Chronic Fatigue Syndrome and various other patients with severe onset of […] fatigue. Group 1) Eight patients were studied with the chronic fatigue syndrome. They are six women and […] with ages ranging from 32 through 48. They had IgG antibodies to human cytomegalovirus. […] They would be evaluated as having past infection. […]

[4] = tested on: HCMV; type: in vivo, human; conditions: for mean energy index: six months later
Description: HCMV-Isolated CFS Patients-Test of Antiviral Treatment. A study was conducted to assess the possible efficacy of ganciclovir treatment on a subset of CFS patients with (1) high HCMV IgG ELISA antibody titers; (2) minimal/no serologic evidence of concurrent EBV multiplication; and (3) oscillating ECG abnormalities at Holter monitoring. Patients. From March, 1993, through June, 1994, 3 men and 15 women with the mean age of 39.7 plus or minus 7.7 years, with CFS (as defined by the USA, Centers for Diseases Control criteria), were recruited from a single infectious diseases referral center in Birmingham, Mich. Approximately 50 patients with chronic fatigue syndrome were screened for inclusion in this study. […] In these 18 CFS patients, baseline standard 12 lead ECG, 2-D echocardiogram, rest-stress myocardial perfusion (thallium 201 or Tc-99 cardiolite) and rest-stress multiple […] acquisitions (MUGA) studies as well as coronary angiography excluded coronary artery disease. HCMV ELISA and HCMV ELISA IgG titers, as well as EBV capsid antigen (VCA), ELISA IgM and EBV total early antigens (EA) immunofluorescent antibody titers were assayed. Additionally, buffy coats, urine and myocardial biopsies were tested for infectious HCMV. […] Holter monitoring, MUGA studies and endomyocardial biopsies in these patients were done. Holter monitors, MUGA studies and endomyocardial biopsies were read blindly without knowledge of the patient. Also readings were repeated by at least one, and often several, other physician readers. A patient's 24-hour Holter monitor was considered positive if T-waves became intermittently inverted or flat. Labile T-wave abnormalities at Holter monitoring were present in each CFS patient. In addition to the Holter monitoring, at each outpatient visit, a subjective evaluation of the patient's functional status was recorded using the energy index (EI) as previously described. Infusions of Ganciclovir. After placement of a peripherally inserted central catheter (PICC) or a groshong catheter, ganciclovir was given intravenously in a dose of 5 mg. per kg. at 12-hour intervals for 30 days. Patients were seen once a week by the same physician and complete blood counts, SMA values and urinalysis were conducted. […] They were advised to avoid exercise, fatigue and alcohol and engage in regular sleeping patterns. Statistical Methods. Eighteen patients, 3 men and 15 women, all with CFS, with a mean age of 39.7 ranging from 29 to 51 years, were evaluated. Statistical significance between patients meeting the criteria for the HCMV subset and other patients with CFS were evaluated using tests of homogeneity of chi-square analysis and the two-tailed Fisher's exact test for bivariate analysis of dichotomous data.

[5] = tested on: Epstein-Barr virus persistent infection; test: Example 2: valacyclovir treatment of EBV-isolated CFS patients; type: in vivo, human
Excerpt: EBV-Isolated CFS Patients—Test of Antiviral Treatment. […] EBV active infection was documented by EBV VCA IgM antibodies and/or EBV EA elevated antibody titers. All of these patients had their energy levels reduced by 50% or more and were partially or entirely non-functional, unable to work or maintain a household. These ten patients had no diseases or complicating conditions which could have accounted for their chronic fatigue syndrome symptoms and they had no prior psychiatric diseases.
Each patient's functional status was recorded as a statistically validated energy index (EI). At each out-patient visit, subjective evaluation of the patient's functional status was recorded using this energy index. The energy index records the average subjective vitality of the patient in the immediate 14 days prior to this specific out-patient visit. When minor illnesses such as the common cold complicated a visit, evaluation of the EI for a patient was delayed until the intercurrent problem receded.
Prior to the initiation of the antiviral treatment and following approximately six months of treatment, objective evaluations of the ability to work and the energy index of each of the ten patients was analyzed.
Pursuant to the energy index, a patient with a 0 energy index (EI) is bedridden. With an energy index of 1 or 2, any activity by the patient leads to overwhelming, incapacitating fatigue. Such patients are generally light-headed, unable to think clearly, and concentration is difficult for any extended period of time (over 60 minutes). Left-sided chest aches, palpitations, sore throats and feverishness are frequent. These patients may be out of bed for intermittent, brief periods of the day.
Patients with an energy index between 3 and 5 can, with great effort, be out of bed for several hours each day doing non-physical activities. […] These patients express variable light-headedness, inability to think clearly or read normally. Left-sided chest aches, palpitations, sore throats and feverishness occur often. Patients within this energy range cannot perform a 40 hour sedentary job or maintain the duties of a homemaker including such activities as cooking and cleaning. In general, CFS patients have an energy index of 5 or less.
Patients with an energy index between 6 and 9 can assume normal activities and maintain a 40 hour work week and, with pacing, maintain a household. […] These patients can do light physical work or exercise in moderation without fatigue.
Patients with an energy index of 10 have normal energy levels, stamina and a sense of well-being. Light-headedness, difficulties in concentrating and reading ability and chest aches, palpitations, sore throats and feverishness are absent.
During the initial and final clinical visits, each CFS patient was studied to determine the IgM antibodies to the EBV viral capsid antigen (VCA), total early antigens (EA), and enzyme immunoassays (ELISA) to HCMV IgM and HCMV ELISA IgG titers. An IgM EBV VCA antibody titer indicates infectious lytic EBV multiplication within the most recent 3 month period. During the EBV infectious lytic cycle, antigen is expressed which can be divided into a diffuse (EAD) complex and a cytoplasmic restricted EAR complex (EAR). As a result, each patient's EAD was assayed. The presence of EBV EA antibody indicates current EBV multiplication. Likewise, an elevated […] IgM antibody indicates recent EBV or HCMV multiplication, respectively. The EBV VCA antibody IgM titers were done by the ELISA method. As a control group, similar serum antibody titers were measured in 20 non-CFS individuals. In the non-CFS control group, the mean HCMV IgG titer was 240.
Dosage. Each of the patients was administered an oral dose of valacyclovir at 10 mg/kg by mouth every six hours.
Demographics. There were nine women and one person. Their ages ranged from 20-67 years. Their mean age was 43.3 years. […]

[6] = eight CFS patients, intravenous followed by oral ganciclovir

For CC(C)[C@H](N)C(=O)OCC(CO)OCn1cnc2c(=O)nc(N)[nH]c21 (stereo partly drawn) [valganciclovir], the “bioavailability (of ganciclovir)” value [1] is listed as 60.9%.

For O=C(O)P(=O)(O)O [Foscarnet sodium, trisodium phosphonoformate], the “activity against herpes viruses” value ([2]; in vitro and in vivo) is listed as “potent in vitro and in vivo activity”.

In the case of Nc1nc2c(ncn2COC(CO)CO)c(=O)[nH]1 [ganciclovir, 9-(1,3-dihydroxy-2-propoxymethyl) guanine], the “antibodies to nonstructural gene products p52 and CM2 (Copalis)” value [3, 6] is reported as “became markedly lower and disappeared”, the fatigue [3, 6] is reported as “remarkably lessened” and the clinical outcome ([3]; person positive only by p52, intravenous followed by oral ganciclovir) is reported as “improved remarkably”. For the same molecule, the cardiac function ([3]; person with congestive heart failure and diabetes mellitus, intravenous) was “improved”, the “CM2 antibodies (Copalis)” value ([3]; two CFS patients with high CM2, no elevated p52, intravenous followed by oral ganciclovir) was “lessened or disappeared” and the mean energy index ([4]; Group A (13 improved patients), start mean 3) was 7. The “patients with improved MUGA test results (lesser tardokinesis, hypokinesis or left ventricular dilatation)” value ([4]; Group A, after treatment) was 3 patients, the “patients with previously abnormal myocardial dynamics reverted to normal (MUGA)” value ([4]; Group A, after treatment) was 3 patients and the “patients who resumed normal pre-CFS activity levels” value ([4]; Group B) was “none”. The mean energy index ([4]; Group B (5 not improved patients), start mean 2) was 4, the fatigue ([4]; case study) was “disappeared” and the “maximal cardiac ejection fraction” value ([4]; case study, a further five months later, from 54%) was 68%. The “resting ejection fraction (stress MUGA)” value ([4]; case study, five months after 30 days i.v. treatment, before 40%) was 54%, the “increase of resting ejection fraction” value ([4]; case study, from 40% to 54%) was 14% and the serum creatinine ([4]; human, in vivo) was “transient increase in serum creatinine”. For the same molecule, the adverse events ([4]; human, in vivo, iv) was “no adverse events or symptoms attributable to ganciclovir”, the patients improved ([4]; of 18 CFS patients, 5 mg per kg i.v. at 12-hour intervals for 30 days) was 13 patients and the “MUGA study at follow up” value ([4]; one Group B patient with initial normal MUGA, 6 months after treatment) was “showed septal hypokinesis”. For the same molecule, the clinical response ([4]; small preliminary subset of CFS patients with HCMV infection, no concurrent EBV multiplication) was “salutary response”, the “activity level after antiviral treatment” value ([4]; the 13 patients in Group A) was “resumed their normal pre-CFS activity levels” and the “bioavailability (of ganciclovir)” value [1] was 5.6%.

For O=c1[nH]c(=O)n([C@@H]2O[C@H](CO)[C@@H](O)[C@@H]2O)cc1/C=C/Br [bromovinyl arabinosyl uracil], the “inhibition of herpes viruses” value ([2]; herpes simplex virus Type 1, Epstein-Barr virus and VZV) is listed as “significant inhibition”.

With CC(C)[C@H](N)C(=O)OCCOCn1cnc2c(=O)[nH]c(N)nc21 [valacyclovir] the “mean energy index (EI) at completion of therapy” value ([5]; 10 EBV CFS patients, 10 mg/kg by mouth every six hours, about six months, pre-therapy mean EI 4.7) was 7.5, the “median energy index (EI) at completion of therapy” value ([5]; 10 EBV CFS patients, about six months of treatment) was 7 and the “range of energy index (EI) at completion of therapy” value ([5]; 10 EBV CFS patients, pre-therapy range 3.5 to 5.5) was 6-10. The “patients with light-headedness, unsteadiness, inability to think well at completion of the trial” value ([5]; at beginning 9 out of 10) was “one of ten”, the “patients with palpitations at completion of the trial” value ([5]; at beginning five out of ten) was “three out of ten” and the “patients with positive EA antibody titers (≧10) at completion of the trial” value ([5]; at beginning seven out of ten) was “eight out of ten”. The “patients with EBV VCA IgM positive titers at completion of the trial” value ([5]; before trial five out of ten) was “two out of ten”, the “ability to work / activity level following treatment” value ([5]; each of the ten patients, after approximately six months) was “able to fully engage in his/her activity level at work or home” and the “patients with chest pain at completion of the trial” value ([5]; prior to therapy five out of ten) was “one out of ten”.
